From the NIST ThermoML archive (doi:10.1021/je020113t) come the findings set out here.

± gives the expanded uncertainty stated by the source.

The conditions of the data set: visual observation.

On to `Cc1nccn1C` [1,2-dimethyl-1H-imidazole], for which the Normal melting temperature (Crystal) worked out at 38.4 ± 0.5 °C.
On the same count and under the same terms, in the case of `c1c[nH]cn1` [1H-imidazole] it was 89.10 ± 0.5 °C.
For `Cc1ncc[nH]1` [2-methylimidazole], the Normal melting temperature (Crystal 1) was found to be 146 ± 0.5 °C.
